This note sets out measurements from patent US20050215978A1, “Method of enhancing catheter patency using a citrate salt catheter lock solution” (priority 2001, published 2005).

Test [1] can be described thus: urokinase use to open occluded or low-flowing tunneled catheters / clotting of catheters in dialysis unit. In kind it is in vivo, human patients. The following applies: satellite outpatient hospital unit, Jan 1998-May 1999.
The subject of a further test is bacteremia. As to the kind of experiment: monthly incidence of bacteremia in outpatient hemodialysis unit by catheter lock solution. The test is classed as in vivo, human patients.

Turning to heparin, the “urokinase use” value in test [1] is listed as “remained low”. The “incidence of bacteremia, percent of patients in the unit per month” value with bacteremia (RTC unit, 70 patients, about 60% with tunneled catheters, heparin Jan-Jul 1998, citrate locks Sep 1998-Jul 1999, 47% citrate May-Jul 1999) is given as 4.6%. Moreover, the “incidence of bacteremia, all other months” value with bacteremia (satellite outpatient hospital unit, 20 ESRD patients, Jan 1998-May 1999) was “zero”. In addition, in the test on bacteremia (satellite outpatient hospital unit, 20 ESRD patients, Jan 1998-May 1999, one patient in one month), the “incidence of bacteremia, percent of all patients, the one month with a case” value turned out to be 5%.
